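Step 1: Grow cells in 96-well plates. Step 2: Expose to compound for 48 hours at 5 concentrations. Step 3: Interpolate endpoints linearly; if unreached, use highest concentration. TGI marks complete inhibition of growth.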

Among the test systems are CCRF-CEM leukemia; SK-MEL-28 melanoma; DMS 114 small cell lung; HT29 colon; SNB-78 CNS; IGROV1 ovarian; SR leukemia; CAKI-1 renal; MDA-MB-231 breast; DU-145 prostate; KM20L2 colon; MDA-N.
What all share (assay): DTP human tumour cell line panel, 48 h

As to `CN(C)CCCNC(=O)N/N=C/c1ccccc1`, the TGI with CCRF-CEM leukemia, in the test with SK-MEL-28 melanoma, with DMS 114 small cell lung, with HT29 colon, in the test on SNB-78 CNS and in the test with IGROV1 ovarian was greater than 100 µM in each case.

Regarding `CC[C@]12C=CCN3CCC4(c5cc([C@@]6(C(=O)OC)CC7CN(CCc8c6[nH]c6ccccc86)CC6CCCCC67)c(OC)cc5N(C)C4[C@](O)(C(=O)OC)C1OC(C)=O)[C@@H]32` (some centres not stated), the TGI with SR leukemia was greater than 33.8 µM; in the test on CCRF-CEM leukemia, greater than 20.6 µM; in the test with CAKI-1 renal, 12 µM; in the test on MDA-MB-231 breast it was 0.0655 µM; in the test on DMS 114 small cell lung, less than 0.01 µM; with HT29 colon, less than 0.01 µM. For the same compound, the TGI is 14.2 µM in the test with DU-145 prostate, 18.8 µM in the test on SNB-78 CNS, less than 0.01 µM in the test on KM20L2 colon and 0.651 µM in the test with IGROV1 ovarian.

With `Nc1c(N2CCOCC2)c(=O)nc2[nH]/c(=C\c3ccccc3O)c(=O)n12`, the TGI in the test on SR leukemia, in the test on CCRF-CEM leukemia, in the test with CAKI-1 renal, in the test with MDA-MB-231 breast, in the test with SK-MEL-28 melanoma and in the test on HT29 colon was greater than 100 µM throughout. In addition, the concentration for total growth inhibition (TGI) in the test on DU-145 prostate, with MDA-N and with IGROV1 ovarian was greater than 100 µM each time.

As to `CCCCNC(=O)Cn1c2ccc(Br)cc2c2nc3ccccc3nc21`, the TGI in the test with SR leukemia, in the test with CCRF-CEM leukemia, in the test with CAKI-1 renal, in the test on MDA-MB-231 breast, with SK-MEL-28 melanoma and in the test on HT29 colon was greater than 100 µM each time. Also, the TGI in the test with DU-145 prostate, in the test on MDA-N and with IGROV1 ovarian was greater than 100 µM each time.

Consider `CN1c2ccccc2C2=C(c3ccccc3)CC[C@@H](C(=O)N3C4CC5CC[C@@]4(CS3(=O)=O)C5(C)C)[C@@H]21` (some centres not stated), for which the TGI in the test with SR leukemia, with CCRF-CEM leukemia, in the test on CAKI-1 renal, with MDA-MB-231 breast, in the test with SK-MEL-28 melanoma and in the test on HT29 colon was greater than 100 µM throughout. For the same compound, the TGI in the test on DU-145 prostate, in the test with MDA-N and in the test on IGROV1 ovarian was greater than 100 µM each time.

For `CSc1ccc(/C=C2\N=C(c3ccccc3)N(c3nc4cc(Cl)c(F)cc4s3)C2=O)cc1`, the TGI is greater than 100 µM with SR leukemia; 55.6 µM in the test on CCRF-CEM leukemia; greater than 100 µM in the test on CAKI-1 renal; greater than 100 µM in the test on MDA-MB-231 breast; greater than 100 µM in the test with SK-MEL-28 melanoma; greater than 100 µM in the test with HT29 colon. For the same compound, the TGI with DU-145 prostate, in the test with MDA-N and in the test with IGROV1 ovarian was greater than 100 µM each time.

As to `NCCCCNCCCN1CCOC1=O`, the TGI in the test on SR leukemia, in the test on CCRF-CEM leukemia, in the test with CAKI-1 renal, in the test on MDA-MB-231 breast, with SK-MEL-28 melanoma and in the test on HT29 colon was greater than 100 µM each time. Also, the TGI in the test on DU-145 prostate, with MDA-N and with IGROV1 ovarian was greater than 100 µM throughout.

Regarding `OC(CC(O)(C(F)(F)Cl)C(F)(F)Cl)c1ccccc1` (configuration not stated), the TGI in the test with SR leukemia, in the test on CCRF-CEM leukemia, in the test on CAKI-1 renal, with MDA-MB-231 breast, in the test with SK-MEL-28 melanoma and in the test with HT29 colon was greater than 10 µM each time. For the same compound, the TGI in the test on DU-145 prostate is greater than 10 µM; in the test with MDA-N it was greater than 10 µM; in the test with IGROV1 ovarian, 0.0883 µM.

For `c1ccc2c(c1)cc1ccc3cccc4ccc2c1c34`, the TGI in the test with SR leukemia, with CCRF-CEM leukemia, in the test on CAKI-1 renal, in the test with MDA-MB-231 breast, with SK-MEL-28 melanoma and in the test with HT29 colon was greater than 100 µM each time. For the same compound, the TGI in the test with DU-145 prostate, in the test on MDA-N and in the test on IGROV1 ovarian was greater than 100 µM in each case.

`COc1cc(N=Nc2ccc(OC)c(S(=O)(=O)O)c2)c(C)cc1N=Nc1ccc(/C=C/c2ccc(N=[N+]([O-])c3ccc(/C=C/c4ccc(N=Nc5cc(C)c(N=Nc6ccc(OC)c(S(=O)(=O)O)c6)cc5OC)cc4S(=O)(=O)O)c(S(=O)(=O)O)c3)cc2S(=O)(=O)O)c(S(=O)(=O)O)c1`: the TGI in the test with CCRF-CEM leukemia, in the test with SK-MEL-28 melanoma, in the test with DMS 114 small cell lung, in the test on HT29 colon, in the test with SNB-78 CNS and with KM20L2 colon was greater than 100 µM each time. In the test with IGROV1 ovarian, the TGI is greater than 100 µM.

As to `CC1=NN2C(=N)/C(=C/c3ccc(F)cc3)C(=O)N=C2S1`, the TGI in the test on SR leukemia, in the test on CCRF-CEM leukemia, in the test on CAKI-1 renal, in the test with MDA-MB-231 breast, in the test with SK-MEL-28 melanoma and in the test on HT29 colon was greater than 100 µM in each case. In addition, the TGI in the test with DU-145 prostate, with MDA-N and in the test on IGROV1 ovarian was greater than 100 µM in each case.

Regarding `COc1ccc(-c2cc3cc(Cl)cc(Cl)c3oc2=O)cc1OC`, the concentration for total growth inhibition (TGI) with SR leukemia, with CCRF-CEM leukemia, in the test on CAKI-1 renal, with MDA-MB-231 breast, in the test with SK-MEL-28 melanoma and in the test on HT29 colon was greater than 100 µM in each case. The TGI with DU-145 prostate, in the test on MDA-N and in the test with IGROV1 ovarian was greater than 100 µM in each case.

Turning to `CCCn1cc2c3c(cccc31)C1C=C(C)CN(C)C1C2` (configuration not stated), the TGI with CCRF-CEM leukemia is 44.9 µM; with CAKI-1 renal, 44.2 µM; in the test with SK-MEL-28 melanoma, 49.9 µM; in the test on DMS 114 small cell lung it was 43.1 µM; with HT29 colon, 42.7 µM; in the test with SNB-78 CNS, 73.4 µM. The TGI worked out at 38.8 µM in the test with KM20L2 colon and 60.4 µM with IGROV1 ovarian.

On to `C=C1C[C@@H]2O[C@H]3[C@H]4[C@@H](C[C@@H](C)[C@@H](OC(C)=O)[C@H]42)[C@@H](C)CO[C@@]3(C)[C@H](OC(=O)CCCCCCC)CC1=O`, for which the TGI is 37.2 µM in the test with SR leukemia; 23.8 µM in the test on CCRF-CEM leukemia; 33.5 µM with CAKI-1 renal; 36.7 µM with MDA-MB-231 breast; 28.7 µM in the test with SK-MEL-28 melanoma; greater than 100 µM in the test with HT29 colon. For the same compound, the values for the total growth inhibition concentration (TGI) in the test with DU-145 prostate, in the test on MDA-N and in the test with IGROV1 ovarian were 31.4 µM, 31 µM and 48.4 µM, respectively.

Consider `COc1ccc(C2c3cc4c(cc3OC(Nc3ccccc3)C2C)OCO4)cc1` (configuration not stated), for which the TGI in the test on SR leukemia is 9.18 µM; in the test on CCRF-CEM leukemia, greater than 100 µM; in the test on CAKI-1 renal it was greater than 100 µM; with MDA-MB-231 breast, greater than 100 µM; with SK-MEL-28 melanoma, greater than 100 µM; with HT29 colon, greater than 100 µM. Besides, the total growth inhibition concentration (TGI) in the test on DU-145 prostate, with MDA-N and with IGROV1 ovarian was greater than 100 µM each time.

Take `CS(=O)(=O)Nc1ccc2ccccc2c1`: the TGI with SR leukemia, in the test with CCRF-CEM leukemia, in the test on CAKI-1 renal, with MDA-MB-231 breast, in the test with SK-MEL-28 melanoma and with HT29 colon was greater than 100 µM throughout. In addition, the TGI with DU-145 prostate, with MDA-N and in the test with IGROV1 ovarian was greater than 100 µM throughout.

Regarding `CSc1nc(=O)c2nc(-c3cccs3)c(-c3cccs3)nc2n1C`, the TGI in the test with SR leukemia, in the test on CCRF-CEM leukemia, in the test with CAKI-1 renal, in the test on MDA-MB-231 breast, with SK-MEL-28 melanoma and in the test with HT29 colon was greater than 100 µM in each case. Besides, the total growth inhibition concentration (TGI) in the test on DU-145 prostate, in the test on MDA-N and in the test on IGROV1 ovarian was greater than 100 µM each time.

For the compound `CCC1([N+](=O)[O-])CN(N=O)C1`, the TGI in the test with SR leukemia, with CCRF-CEM leukemia, in the test on CAKI-1 renal, with MDA-MB-231 breast, with SK-MEL-28 melanoma and with HT29 colon was greater than 100 µM in each case. The TGI in the test with DU-145 prostate, with MDA-N and with IGROV1 ovarian was greater than 100 µM throughout.

With `Cc1c(C(=O)NNc2ccccc2)n2c(=S)[nH]nc2c2ccccc12`, the TGI in the test on SR leukemia, with CCRF-CEM leukemia, with CAKI-1 renal, with MDA-MB-231 breast, with SK-MEL-28 melanoma and in the test on HT29 colon was greater than 100 µM in each case. Moreover, the TGI in the test on DU-145 prostate, with MDA-N and in the test with IGROV1 ovarian was greater than 100 µM in each case.

As to `C=C(C)[C@H]1CC23C(=O)[C@@](C)(C[C@H]2C1(C)C)C(=O)C(C(=O)C(C)C)=C3O`, the TGI in the test with SR leukemia worked out at 38.7 µM; in the test on CCRF-CEM leukemia it was 24.9 µM; with CAKI-1 renal it was 55.3 µM; with MDA-MB-231 breast, 32.2 µM; with SK-MEL-28 melanoma, 28.6 µM; with HT29 colon it was 26.4 µM. The figures for the TGI in the test on DU-145 prostate, in the test with MDA-N and with IGROV1 ovarian were greater than 100 µM, 35.7 µM and 32.7 µM, respectively.

For `CC1=C(C(=O)OCCO[N+](=O)[O-])C(c2ccccc2[N+](=O)[O-])C(C(=O)OC(C)C)=C(C)N1` (configuration not stated), the TGI with SR leukemia is greater than 100 µM; in the test on CCRF-CEM leukemia, greater than 100 µM; in the test with CAKI-1 renal it was 59.7 µM; with MDA-MB-231 breast it was 29 µM; in the test on SK-MEL-28 melanoma it was 30.4 µM; with HT29 colon it was 30.3 µM. The TGI came out at 50.4 µM with DU-145 prostate, 31.1 µM with MDA-N and 34.9 µM in the test with IGROV1 ovarian.

Turning to `O=C(NC(C(F)(F)F)(C(F)(F)F)P(=O)(Cc1ccccc1)Cc1ccccc1)C(C(F)(F)F)C(F)(F)F`, the TGI with SR leukemia was 80.6 µM; in the test on CCRF-CEM leukemia, greater than 100 µM; in the test on CAKI-1 renal, 97.1 µM; with MDA-MB-231 breast, 38.8 µM; with SK-MEL-28 melanoma, 53.1 µM; in the test on HT29 colon, 45.4 µM. For the same compound, the values for the TGI in the test with DU-145 prostate, with MDA-N and in the test with IGROV1 ovarian were greater than 100 µM, 43.6 µM and 36.1 µM, respectively.

Regarding `O=C1CC[C@@]23CC(=O)O[C@@H]2CCCC3C1` (some centres not stated), the TGI with SR leukemia, in the test with CCRF-CEM leukemia, in the test on CAKI-1 renal, with MDA-MB-231 breast, in the test with SK-MEL-28 melanoma and in the test with HT29 colon was greater than 100 µM throughout. For the same compound, the total growth inhibition concentration (TGI) in the test with DU-145 prostate, in the test with MDA-N and in the test on IGROV1 ovarian was greater than 100 µM throughout.

`c1cncc(CSc2nc3ccccc3nc2-c2cccs2)c1`: the TGI in the test with SR leukemia, with CCRF-CEM leukemia, in the test on SK-MEL-28 melanoma, with HT29 colon and with SNB-78 CNS was greater than 100 µM throughout.

The values above are taken from PubChem BioAssay (NCI).
